Test results as given in paper PMC8605023 (Nature Communications, 2021).
Peptide text beside a SMILES is read from it.

Assays:
Experiment in all cases: biochemical
Type in all cases: binding
AP2M1 = biological target: T1, AP2M1 (Homo sapiens, UniProt Q96CW1)
T1 construct: His-GST (cleaved yes); made in house; host or cells: E. coli BL21-Gold(DE3)
T1 sequence (Q96CW1 160-435 limits assumed): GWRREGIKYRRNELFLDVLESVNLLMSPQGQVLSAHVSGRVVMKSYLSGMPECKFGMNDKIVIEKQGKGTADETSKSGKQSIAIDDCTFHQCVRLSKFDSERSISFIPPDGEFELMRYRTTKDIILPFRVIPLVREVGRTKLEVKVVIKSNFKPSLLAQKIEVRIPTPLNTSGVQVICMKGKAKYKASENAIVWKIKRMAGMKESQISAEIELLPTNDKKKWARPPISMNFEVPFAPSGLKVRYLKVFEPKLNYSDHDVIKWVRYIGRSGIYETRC

NTF2 domain of G3BP2 = biological target: T2, NTF2 domain of G3BP2 (Homo sapiens, UniProt Q9UN86)
T2 construct: made in house; host or cells: E. coli BL21-Gold(DE3)
T2 sequence (Q9UN86 11-133 limits assumed): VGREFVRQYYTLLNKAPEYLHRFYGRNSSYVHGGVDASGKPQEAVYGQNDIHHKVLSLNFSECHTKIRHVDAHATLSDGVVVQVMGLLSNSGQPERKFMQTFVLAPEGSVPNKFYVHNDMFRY

NTF2 domain of G3BP1 = biological target: T3, NTF2 domain of G3BP1 (Homo sapiens, UniProt Q13283)
T3 construct: made in house; host or cells: E. coli BL21-Gold(DE3)

USP7 = biological target: T4, USP7 (Homo sapiens, UniProt Q93009)
T4 construct: His-GST (cleaved yes); made in house; host or cells: E. coli BL21-Gold(DE3)

MAP1LC3C = biological target: T5, MAP1LC3C (Homo sapiens, UniProt Q9BXW4)
T5 construct: His-GST (cleaved yes); made in house; host or cells: E. coli BL21-Gold(DE3)
T5 sequence (Q9BXW4 1-126 limits assumed): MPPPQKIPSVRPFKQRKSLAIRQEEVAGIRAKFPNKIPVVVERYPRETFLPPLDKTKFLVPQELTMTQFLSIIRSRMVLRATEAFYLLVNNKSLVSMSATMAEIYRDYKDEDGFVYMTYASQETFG

T3 sequence (Q13283 11-133 limits assumed): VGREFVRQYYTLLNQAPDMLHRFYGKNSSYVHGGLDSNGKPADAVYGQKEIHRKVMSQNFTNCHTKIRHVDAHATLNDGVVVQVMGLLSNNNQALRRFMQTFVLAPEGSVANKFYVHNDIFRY
T4 sequence (Q93009 63-205 limits assumed): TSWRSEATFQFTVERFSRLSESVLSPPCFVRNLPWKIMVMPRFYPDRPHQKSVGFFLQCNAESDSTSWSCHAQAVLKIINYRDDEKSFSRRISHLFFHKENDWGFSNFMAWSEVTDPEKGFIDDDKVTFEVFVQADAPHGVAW

SMILES | Kd (NTF2 domain of G3BP2) | IC50 (NTF2 domain of G3BP1) | Ki (NTF2 domain of G3BP1) | IC50 (NTF2 domain of G3BP2) | other results
CC[C@H](C)[C@H](NC(=O)[C@H](CC(=O)O)NC(=O)[C@H](CO)NC(=O)[C@@H](NC(=O)[C@@H](NC(=O)CNC(C)=O)C(C)C)C(C)C)C(=O)N[C@@H](CC(=O)O)C(=O)N[C@@H](Cc1ccc(O)cc1)C(=O)N[C@H](C(=O)N1CCC[C@H]1C(=O)N[C@@H](CC(C)C)C(=O)N[C@@H](CCCCN)C(=O)N[C@@H](CO)C(=O)N[C@@H](C)C(=O)N[C@H](C(N)=O)[C@@H](C)O)C(C)C | – | – | – | – | Kd (AP2M1): 1.6 ± 0.2 µM
CC[C@H](C)[C@H](NC(=O)[C@H](Cc1ccccc1)NC(=O)[C@H](CC(N)=O)NC(=O)[C@H](Cc1ccc(O)cc1)NC(=O)[C@@H]1CCCN1C(=O)CNC(=O)[C@H](CCC(N)=O)NC(=O)[C@H](CCSC)NC(=O)[C@H](CCC(N)=O)NC(=O)[C@H](C)NC(C)=O)C(=O)N[C@@H](CCC(N)=O)C(=O)N[C@@H](CC(=O)O)C(=O)N[C@@H](CO)C(=O)N[C@@H](CCSC)C(=O)N[C@@H](CC(C)C)C(=O)N[C@@H](CC(=O)O)C(N)=O [CAPRIN1 364-379 Human] (Ac-AQMQGPYNFIQDSMLD-NH2) | 174 µM | 46 µM | – | – | –
CC(=O)N[C@@H](CCC(=O)O)C(=O)N[C@@H](CO)C(=O)N[C@@H](CC(C)C)C(=O)N1CCC[C@H]1C(=O)N[C@@H](Cc1ccccc1)C(=O)N[C@@H](CO)C(=O)N[C@@H](Cc1ccccc1)C(=O)NCC(=O)N[C@H](C(=O)N[C@@H](CC(C)C)C(=O)N[C@@H](CO)C(=O)N[C@@H](CO)C(=O)N[C@@H](Cc1c[nH]c2ccccc12)C(=O)N[C@@H](CCC(=O)O)C(=O)N[C@@H](CC(C)C)C(=O)N[C@@H](CCC(=O)O)C(=O)O)[C@@H](C)O [DDIT3 4-19 Human] (Ac-ESLPFSFGTLSSWELE-OH) | 14 µM | 44 µM | 14 µM | – | –
CC(=O)N[C@@H](C)C(=O)N1CCC[C@H]1C(=O)N[C@@H](CCCNC(=N)N)C(=O)N[C@@H](C)C(=O)N[C@H](C(=O)N[C@H](C(=O)N[C@@H](Cc1ccccc1)C(=O)NCC(=O)N[C@@H](CC(=O)O)C(=O)N[C@@H](CC(N)=O)C(=O)N[C@@H](CC(N)=O)C(=O)N[C@@H](CC(=O)O)C(=O)N[C@@H](CC(N)=O)C(=O)N[C@@H](CC(N)=O)C(=O)N[C@H](C(=O)N[C@@H](Cc1ccc(O)cc1)C(N)=O)[C@@H](C)O)[C@@H](C)O)C(C)C [N 6-20 Mers1] (Ac-APRAVTFGDNNDNNTY-NH2) | 26 µM | – | 51 µM | – | Ki (NTF2 domain of G3BP2): 26 µM; Kd (NTF2 domain of G3BP1): 51 ± 2 µM
CC[C@H](C)[C@H](NC(=O)[C@H](CCCNC(=N)N)NC(=O)[C@@H]1CCCN1C(=O)[C@H](C)NC(C)=O)C(=O)N[C@H](C(=O)N[C@@H](Cc1ccccc1)C(=O)NCC(=O)NCC(=O)N1CCC[C@H]1C(=O)N[C@@H](CO)C(=O)N[C@@H](CC(=O)O)C(=O)N[C@@H](CO)C(=O)N[C@H](C(=O)NCC(=O)N[C@@H](CO)C(=O)N[C@@H](Cc1ccc(O)cc1)C(N)=O)[C@@H](C)O)[C@@H](C)O [N 12-26 Sars-CoV2] (Ac-APRITFGGPSDSTGSY-NH2) | – | 17 µM | 4 µM | 10 µM | Kd (NTF2 domain of G3BP1): 4 µM
CC[C@H](C)[C@H](NC(=O)[C@H](CCCNC(=N)N)NC(=O)[C@@H]1CCCN1C(=O)[C@H](C)NC(C)=O)C(=O)N[C@H](C(=O)N[C@@H](Cc1ccccc1)C(=O)NCC(=O)NCC(=O)N1CCC[C@H]1C(=O)N[C@H](C(=O)N[C@@H](CC(=O)O)C(=O)N[C@@H](CO)C(=O)N[C@H](C(=O)N[C@@H](CC(=O)O)C(=O)N[C@@H](CC(N)=O)C(=O)N[C@@H](Cc1ccc(O)cc1)C(N)=O)[C@@H](C)O)[C@@H](C)O)[C@@H](C)O [N 13-27 Sars-CoV] (Ac-APRITFGGPTDSTDNY-NH2) | – | 10 µM | – | – | –
CC(=O)N[C@@H](CCC(N)=O)C(=O)NCC(=O)N[C@@H](CCCCN)C(=O)N1CCC[C@H]1C(=O)N[C@@H](CC(C)C)C(=O)N[C@@H](CCC(=O)O)C(=O)N[C@@H](Cc1ccccc1)C(=O)NCC(=O)N[C@@H](C)C(=O)N[C@H](C(=O)N[C@@H](CO)C(=O)N[C@@H](C)C(=O)N[C@@H](C)C(=O)N[C@@H](CC(C)C)C(=O)N[C@@H](CCC(N)=O)C(=O)N[C@@H](Cc1ccc(O)cc1)C(N)=O)[C@@H](C)O [NSP3 956-971 Sars-CoV2] | 35 ± 13 µM | – | – | – | Ki (NTF2 domain of G3BP2): 35 µM
CC(=O)N[C@@H](CCC(N)=O)C(=O)NCC(=O)N[C@@H](CC(C)C)C(=O)N1CCC[C@H]1C(=O)N[C@@H](CC(C)C)C(=O)N[C@@H](CCC(=O)O)C(=O)N[C@@H](Cc1ccccc1)C(=O)NCC(=O)N[C@@H](C)C(=O)N[C@@H](CO)C(=O)N[C@@H](C)C(=O)N[C@@H](CCC(=O)O)C(=O)N[C@H](C(=O)N[C@H](C(=O)N[C@@H](CCCNC(=N)N)C(=O)N[C@@H](Cc1ccc(O)cc1)C(N)=O)C(C)C)[C@@H](C)O [NSP3 958-972 Sars-CoV] | 47 ± 2 µM | – | 119 µM | – | Ki (NTF2 domain of G3BP2): 47 µM; Kd (NTF2 domain of G3BP1): 119 ± 5 µM
CC(=O)N[C@@H](CC(C)C)C(=O)N[C@H](C(=O)N[C@@H](Cc1ccccc1)C(=O)NCC(=O)N[C@@H](CC(=O)O)C(=O)N[C@@H](Cc1ccccc1)C(=O)N[C@@H](CC(=O)O)C(=O)N[C@@H](CCC(=O)O)C(=O)N[C@@H](Cc1c[nH]cn1)C(=O)N[C@@H](CCC(=O)O)C(=O)N[C@H](C(=O)N[C@@H](CC(=O)O)C(=O)N[C@@H](Cc1ccc(O)cc1)C(N)=O)C(C)C)[C@@H](C)O [NSP3 1785-1796 SFV] | – | 23 µM | – | 13 µM | –
CC[C@H](C)[C@H](NC(=O)CNC(=O)[C@H](CO)NC(=O)[C@H](C)NC(=O)[C@H](CC(C)C)NC(=O)[C@H](C)NC(=O)[C@H](CC(=O)O)NC(=O)[C@@H](NC(=O)[C@H](CCC(=O)O)NC(=O)[C@H](Cc1c[nH]cn1)NC(=O)[C@H](CCC(=O)O)NC(=O)[C@H](CC(=O)O)NC(=O)[C@H](Cc1ccccc1)NC(=O)[C@H](CC(=O)O)NC(=O)CNC(=O)[C@H](Cc1ccccc1)NC(=O)[C@@H](NC(=O)[C@H](CC(C)C)NC(C)=O)[C@@H](C)O)C(C)C)C(=O)N[C@H](C(=O)N[C@@H](Cc1ccccc1)C(=O)NCC(=O)N[C@@H](CC(=O)O)C(=O)N[C@@H](Cc1ccccc1)C(=O)N[C@@H](CC(=O)O)C(=O)N[C@@H](CC(=O)O)C(=O)N[C@@H](Cc1ccc(O)cc1)C(N)=O)[C@@H](C)O [NSP3 1785-1809 SFV] | – | – | 0.3 µM | – | Ki (NTF2 domain of G3BP2): 0.15 µM; Kd (NTF2 domain of G3BP1): 0.3 µM; binds stronger than the SARS-CoV-2 N peptide to both G3BP1 and G3BP2 (fold) (NTF2 domain of G3BP1): approximately 10 fold
CC[C@H](C)[C@H](NC(=O)CNC(=O)[C@H](CO)NC(=O)[C@H](C)NC(=O)[C@H](CC(C)C)NC(=O)[C@H](C)NC(=O)[C@H](CC(=O)O)NC(C)=O)C(=O)N[C@H](C(=O)N[C@@H](Cc1ccccc1)C(=O)NCC(=O)N[C@@H](CC(=O)O)C(=O)N[C@@H](Cc1ccccc1)C(=O)N[C@@H](CC(=O)O)C(=O)N[C@@H](CC(=O)O)C(=O)N[C@@H](Cc1ccc(O)cc1)C(N)=O)[C@@H](C)O [NSP3 1796-1809 SFV] | – | – | – | 11 µM | –
CC(C)C[C@H](NC(=O)[C@@H](NC(=O)[C@H](CCC(=O)O)NC(=O)[C@H](Cc1ccccc1)NC(=O)[C@H](CO)NC(=O)[C@H](CC(N)=O)NC(=O)[C@H](CO)NC(=O)[C@@H](NC(=O)[C@H](CC(=O)O)NC(=O)[C@@H](N)C(C)C)[C@@H](C)O)C(C)C)C(=O)N[C@@H](C)C(=O)N[C@H](C(=O)N[C@@H](CCC(=O)O)C(=O)N[C@@H](CC(=O)O)C(=O)N[C@H](C(=O)N[C@@H](CCC(N)=O)C(=O)N[C@@H](Cc1ccc(O)cc1)C(=O)O)[C@@H](C)O)C(C)C [NSP3 1996-2011 Sars-CoV] | – | – | – | – | IC50 (USP7): 210 µM; Kd (USP7): 29 ± 2 µM; Ki (USP7): 29 µM; IC50 (MAP1LC3C): 200 µM; Kd (MAP1LC3C): 28 ± 1 µM; Ki (MAP1LC3C): 28 µM
CC[C@H](C)[C@H](NC(=O)[C@@H]1CCCN1C(=O)[C@@H]1CCCN1C(=O)[C@@H](NC(=O)[C@@H]1CCCN1C(C)=O)C(C)C)C(=O)N[C@@H](CCC(=O)O)C(=O)N[C@@H](Cc1ccccc1)C(=O)NCC(=O)N[C@H](C(=O)N[C@@H](CO)C(=O)N1CCC[C@H]1C(=O)N[C@@H](CCCCN)C(=O)N[C@@H](CC(=O)O)C(=O)N[C@@H](CO)C(=O)N[C@@H](CC(=O)O)C(=O)N[C@@H](Cc1ccc(O)cc1)C(N)=O)C(C)C [PRRC2B 1780-1794 Human] (Ac-PVPPIEFGVSPKDSDY-NH2) | 10 µM | 33 µM | 10 µM | 53 µM | –
CC(=O)N1CCC[C@H]1C(=O)N[C@@H](CO)C(=O)N[C@@H](CCCCN)C(=O)N[C@@H](CC(C)C)C(=O)N1CCC[C@H]1C(=O)N[C@H](C(=O)N[C@@H](Cc1ccccc1)C(=O)NCC(=O)N[C@@H](C)C(=O)N1CCC[C@H]1C(=O)N[C@@H](CCC(=O)O)C(=O)N[C@@H](CCC(N)=O)C(=O)N[C@@H](CC(C)C)C(=O)N[C@H](C(=O)N[C@@H](CC(=O)O)C(=O)N[C@@H](Cc1ccc(O)cc1)C(N)=O)C(C)C)[C@@H](C)O [TRIM25 400-414 Human] (Ac-PSKLPTFGAPEQLVDY-NH2) | 46 µM | – | 46 µM | 53 µM | –
CC(=O)N[C@@H](CC(N)=O)C(=O)N[C@@H](CC(C)C)C(=O)N[C@@H](CCC(N)=O)C(=O)N[C@@H](Cc1ccccc1)C(=O)NCC(=O)N[C@@H](C)C(=O)N[C@@H](CC(C)C)C(=O)N[C@@H](CCC(N)=O)C(=O)N[C@@H](Cc1ccccc1)C(=O)NCC(=O)N[C@@H](CO)C(=O)N[C@@H](CCC(=O)O)C(=O)N1CCC[C@H]1C(=O)N[C@H](C(=O)N[C@@H](Cc1ccc(O)cc1)C(=O)O)C(C)C [UBAP2L 515-528 Human] (Ac-NLQFGALQFGSEPVY-OH) | 34 µM | – | 34 µM | – | –
